# Reference: patent US20090208620A1, “Alimentary Compositions and Methods For Metabolic Modulation” (VDF FUTURECEUTICALS, INC., priority 2003, published 2009)
# Where “and” joins values, the source holds several entries; their conditions need not be identical. Equal values may be shown once.
# How the values were obtained:
# GLUT-4 = experiment: Western immunoblot for GLUT-4 protein level in C2C12 cells; type: cell-based, mouse
# Description: (§1) The levels of Glut-4, activated AMPK and activated Akt were measured in mouse muscle cells C2C12 (from ATTC) and in primary culture of human skeletal muscle cells (Clonetics, Inc.) using Western immunoblotting. C2C12 cells were plated at 1.5×1-exp5 cells per mL/well (12-well plate) in standard cell culture medium (DMEM supplemented with 10% fetal bovine serum (FBS), 25 mM glucose, 20 mM Hepes, 4 mM glutamine and 2 mM sodium pyruvate. 48 hrs after the plating, medium was changed to differentiation medium (DMEM supplemented with 5 mM of glucose and 0.5% of FBS) for next 3-4 days to stimulate the formation of myotubes. Three hours before the treatment with selected agents, cells were washed with PBS and transferred to PBS supplemented with 5 mM of glucose.
# Analysis of C2C12 cells for the level of activated AMPK, Akt and the level of GLUT-4 was performed in the same experimental system. The cells were treated for 30 minutes at 37° C. After the treatment, the cells were washed with ice-cold PBS and lysed with 80 μl of lysis buffer/well (M-PER buffer from Pierce supplemented with protease and phosphatase inhibitor mix (Calbiochem) for 10 minutes on ice. Next, the plates were transferred to −20° C. to improve the lysis of the cells. Next cells were sonicated for 5 minutes and lysate was transferred to Eppendorf tubes and centrifuged at 14,000 rpm for 10 minutes. Supernatants were collected in fresh Eppendorf tubes and kept on ice to measure the amount of total proteins. 3 μl of each lysate was used to measure the protein concentration using standard Bradford method (Biorad). Subsequently, 20 μg per sample of sample protein was used for Western analysis using NuPage 10% Bis/Tris gels (Invitrogen). After exposure of membranes to primary and secondary antibodies AMPK, AKT or Glut-4 was detected using ECL-Plus (Amersham) following producer's instruction. Chemilumiscent signals were detected by using ChemiDoc system from Biorad. Intensity of detected signals were analyzed and measured using Quantity One software (Biorad). Alternatively, the level of phosphorylated AMPK was detected using ECL kit from Amersham and short exposure to Kodak films.
# Experimental setup: Cell Culture was followed by treatment with selected contemplated compounds, which was followed by cell lysis and western blot analysis for AMPK, Akt, GLUT4, total AMPK, and total Akt. Signals were acquired accordingly. Primary antibodies used in these studies are the following: Anti-phospho-AMPK (Thr172), mouse, rabbit IgG, from Cell Signaling, #2531; Anti-phospho-Akt (Ser473), mouse, rabbit IgG, Cell Signaling, #9271; Anti-Glut-4, mouse, rabbit IgG, Calbiochem, #400064; Anti-AMPK (total), mouse, rabbit IgG, Cell Signaling, #2532; Anti-Akt (total), mouse, rabbit IgG, Cell Signaling, #9272.
# The effects of kinetin, N^2-Acetyl-Guanosine and N^2-Acetyl-Guanine on GLUT-4 protein level in C2C12 cells were investigated following the same experimental design as described for AMPK and AKT. Anti-Glut-4 antibody used in this study was from Calbiochem. […] Table 3 refers to multiple independent experiments where multiple identical concentrations for the same reagents are indicated.
# activated Akt = experiment: Western immunoblot for activated (phospho-Ser473) Akt in muscle cells; type: cell-based, mouse; settings: for FOLD AKT ACTIVATION (OVER CONTROL): cells treated 30 minutes at 37° C
# Description: as §1
# (§2) Human skeletal muscle cells (HSKM) were cultured in SKBM-2 mediums provided by Clonetics. 48 hrs after cell plating, medium was changed to SKBM medium to stimulate differentiation of the cells to myotubes. When differentiated, the myotubes were transferred to PBS supplemented with 5 mM glucose for three hrs before the treatment.
# (§3) Analysis of C2C12 cells for the level of activated AMPK, Akt and the level of GLUT-4 was performed in the same experimental system. The cells were treated for 30 minutes at 37° C. […] Subsequently, 20 μg per sample of sample protein was used for Western analysis using NuPage 10% Bis/Tris gels (Invitrogen). After exposure of membranes to primary and secondary antibodies AMPK, AKT or Glut-4 was detected using ECL-Plus (Amersham) following producer's instruction. Chemilumiscent signals were detected by using ChemiDoc system from Biorad. Intensity of detected signals were analyzed and measured using Quantity One software (Biorad). Alternatively, the level of phosphorylated AMPK was detected using ECL kit from Amersham and short exposure to Kodak films.
# (§4) Experimental setup: Cell Culture was followed by treatment with selected contemplated compounds, which was followed by cell lysis and western blot analysis for AMPK, Akt, GLUT4, total AMPK, and total Akt. Signals were acquired accordingly.
# activated AMPK = experiment: Western immunoblot for activated (phospho-Thr172) AMPK in muscle cells; type: cell-based, mouse; settings: for FOLD AMPK ACTIVATION (OVER CONTROL): cells treated 30 minutes at 37° C
# Description: as §1, §2, §3, §4
# muscle cells = experiment: Total glucose uptake in vitro with fluorescent glucose analog; type: cell-based; settings: for AVERAGE (N = 3) fluorescence of fluorescent glucose in the cells / FOLD CHANGE IN TOTAL GLUCOSE UPTAKE (OVER CONTROL): 30 minutes at 37 C
# Description: Total glucose uptake was measured using fluorescent glucose analog from Molecular Probes. Briefly, muscle cells were treated with kinetin, N^2-Acetyl-Guanosine and N^2-Acetyl-Guanine for 30 minutes at 37 C first and subsequently, these cells were exposed to 500 μM of fluorescent glucose analog for 5 minutes at room temperature. Next, cells were washed twice with cold Krebs-Hepes buffered solution and fixed in 70% ethanol in water. Fluorescence of fluorescent glucose in the cells was measured using fluorescent plate reader at 480/530 nm (excitation/emission). […] Table 4 refers to multiple independent experiments where multiple identical concentrations for the same reagents are indicated.
# [1] = concentration 0.15 (unit not given)
# [2] = concentration 0.3 (unit not given)
# [3] = concentration 0.75 (unit not given)
# [4] = concentration 1.5 (unit not given)
# [5] = concentration 3.75 (unit not given)
# [6] = concentration 7.5 (unit not given)
smiles,measurement,setting,value
"CN(C)C(=N)N=C(N)N [Metformin, reference compound]",FOLD CHANGE IN GLUT-4 LEVEL (OVER CONTROL),GLUT-4; 2000 microM,1.50 fold
same,FOLD AKT ACTIVATION (OVER CONTROL),activated Akt; 2.0 milliM,2.70 fold
same,FOLD AMPK ACTIVATION (OVER CONTROL),activated AMPK; 2.0 milliM,1.42 fold
CC(=O)Nc1nc2c(ncn2[C@@H]2O[C@H](CO)[C@@H](O)[C@H]2O)c(=O)[nH]1 [N^2-Acetyl-Guanosine],effect on GLUT-4 protein level (in words),GLUT-4,potently increase GLUT-4 protein level
same,FOLD CHANGE IN GLUT-4 LEVEL (OVER CONTROL),GLUT-4; 0.3 microM,1.21 fold
same,FOLD CHANGE IN GLUT-4 LEVEL (OVER CONTROL),GLUT-4; 1.5 microM,1.74 fold
same,FOLD CHANGE IN GLUT-4 LEVEL (OVER CONTROL),GLUT-4; 7.5 microM,3.14 fold
same,FOLD CHANGE IN GLUT-4 LEVEL (OVER CONTROL),GLUT-4; 37.5 microM,3.03 fold
same,effect on glucose uptake in muscle cells in vitro (in words),muscle cells,potently enhance glucose uptake in muscle cells in vitro
same,AVERAGE (N = 3) fluorescence of fluorescent glucose in the cells,muscle cells; [1],90.5 +/− 1.7
same,FOLD CHANGE IN TOTAL GLUCOSE UPTAKE (OVER CONTROL),muscle cells; [1],1.94 fold
same,AVERAGE (N = 3) fluorescence of fluorescent glucose in the cells,muscle cells; [2],44.1 +/− 0.7
same,FOLD CHANGE IN TOTAL GLUCOSE UPTAKE (OVER CONTROL),muscle cells; [2],2.17 fold
same,AVERAGE (N = 3) fluorescence of fluorescent glucose in the cells,muscle cells; [3],109.5 +/− 2.6
same,FOLD CHANGE IN TOTAL GLUCOSE UPTAKE (OVER CONTROL),muscle cells; [3],2.35 fold
same,AVERAGE (N = 3) fluorescence of fluorescent glucose in the cells,muscle cells; [4],54.3 +/− 0.9
same,FOLD CHANGE IN TOTAL GLUCOSE UPTAKE (OVER CONTROL),muscle cells; [4],2.67 fold
same,AVERAGE (N = 3) fluorescence of fluorescent glucose in the cells,muscle cells; [5],148.7 +/− 8.5
same,FOLD CHANGE IN TOTAL GLUCOSE UPTAKE (OVER CONTROL),muscle cells; [5],3.18 fold
same,AVERAGE (N = 3) fluorescence of fluorescent glucose in the cells,muscle cells; [6],61.7 +/− 1.3
same,FOLD CHANGE IN TOTAL GLUCOSE UPTAKE (OVER CONTROL),muscle cells; [6],3.03 fold
same,FOLD AKT ACTIVATION (OVER CONTROL),activated Akt; 0.1 microM,2.57 fold
same,FOLD AKT ACTIVATION (OVER CONTROL),activated Akt; 0.3 microM,1.92 fold and 2.57 fold
same,FOLD AKT ACTIVATION (OVER CONTROL),activated Akt; 0.8 microM,1.75 fold and 2.95 fold
same,FOLD AKT ACTIVATION (OVER CONTROL),activated Akt; 1.5 microM,1.55 fold
same,FOLD AKT ACTIVATION (OVER CONTROL),activated Akt; 2.0 microM,2.17 fold
same,FOLD AKT ACTIVATION (OVER CONTROL),activated Akt; 5.0 microM,1.23 fold
same,FOLD AKT ACTIVATION (OVER CONTROL),activated Akt; 7.5 microM,1.68 fold
same,effect on Akt activity (in words),activated Akt; no concentration stated,potent activators of AMPK as well as Akt
same,FOLD AMPK ACTIVATION (OVER CONTROL),activated AMPK; 0.3 microM,3.75 fold
same,FOLD AMPK ACTIVATION (OVER CONTROL),activated AMPK; 0.8 microM,2.20 fold
same,FOLD AMPK ACTIVATION (OVER CONTROL),activated AMPK; 1.5 microM,4.28 fold
same,FOLD AMPK ACTIVATION (OVER CONTROL),activated AMPK; 2.0 microM,2.20 fold
same,FOLD AMPK ACTIVATION (OVER CONTROL),activated AMPK; 7.5 microM,1.71 fold
same,FOLD AMPK ACTIVATION (OVER CONTROL),activated AMPK; 37.5 microM,2.28 fold
same,effect on AMPK activity (in words),activated AMPK; no concentration stated,potent activators of AMPK
"CN(CCOc1ccc(CC2SC(=O)NC2=O)cc1)c1ccccn1 (stereo not drawn) [Rosiglitazone, reference compound]",FOLD CHANGE IN GLUT-4 LEVEL (OVER CONTROL),GLUT-4; 9.0 microM,3.61 fold
same,FOLD CHANGE IN GLUT-4 LEVEL (OVER CONTROL),GLUT-4; 27.0 microM,3.19 fold
same,FOLD AKT ACTIVATION (OVER CONTROL),activated Akt; 1.0 microM,2.83 fold
same,FOLD AKT ACTIVATION (OVER CONTROL),activated Akt; 9.0 microM,1.78 fold
same,FOLD AKT ACTIVATION (OVER CONTROL),activated Akt; 27.0 microM,0.71 fold
same,FOLD AMPK ACTIVATION (OVER CONTROL),activated AMPK; 3.0 microM,3.50 fold
